What was measured:
ShHTL7 T190F/C194F = ShHTL7 T190F/C194F (Striga hermonthica, UniProt A0A0M3PNA2, C194F/T190F); experiment: ITC binding to ShHTL7 double mutation; conditions: 3 mM KAR1 into 150 μM mutant
Description: (§1) Supplementary Figure 8. Activity measurements of ShHTL7 mutants. (a-b), Binding analyses of the T190F/C194F double mutation (a) and L124F/T190F/C194F triple mutation (b) of ShHTL7 with KAR1 by ITC (shown in black). The ITC assays were performed by adding 3 mM KAR1 to 150 μM ShHTL7 mutants in the same manner as in Supplementary Figure 3. Results of titrating buffer to 150 μM ShHTL7 mutants are shown in red. The upper panel for each […]
(§2) injection (black squares). (c) YLG hydrolytic activity of ShHTL7 and its mutants. As described

ShHTL7 = molecular target: T1, ShHTL7 (Striga hermonthica, UniProt A0A0M3PNA2); experiment: ITC binding to ShHTL7; conditions: 3 mM KAR1 into 150 μM protein
T1 sequence (A0A0M3PNA2 1-271): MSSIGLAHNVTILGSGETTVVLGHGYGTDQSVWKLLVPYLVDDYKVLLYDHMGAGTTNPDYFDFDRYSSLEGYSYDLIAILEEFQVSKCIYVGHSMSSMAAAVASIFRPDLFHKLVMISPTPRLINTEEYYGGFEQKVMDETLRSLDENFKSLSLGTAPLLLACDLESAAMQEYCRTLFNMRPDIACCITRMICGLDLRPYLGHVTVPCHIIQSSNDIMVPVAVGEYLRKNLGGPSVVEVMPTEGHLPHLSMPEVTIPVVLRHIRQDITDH
Description: (§3) The binding assays were performed using a MicroCal iTC200 isothermal titration calorimeter (GE Healthcare). Prior to the ITC experiments, concentrated ShD14, ShHTL1, ShHTL4, and ShHTL7 were exchanged into a buffer consisting of 20 mM HEPES (pH 8.0) and 150 mM NaCl to remove dithiothreitol and were then adjusted to a final concentration of 150 μM. The sample cell was filled with protein solution (204 μL). Nineteen consecutive 2.0-μL aliquots of 3 mM KAR1 (3-methyl-2H-furo [2,3-c] pyran-2-one) were injected into a prepared protein solution at 150 s intervals at 20 °C. The first injection volume was 0.4 μL, and the observed thermal peak was excluded from the data analysis. A negative control was obtained by titrating 3 mM KAR1 into the buffer (20 mM HEPES, pH 8.0, 150 mM NaCl) in the same manner. Data fitting was performed in “one set of sites” mode, and KD values were calculated using Origin software provided by MicroCal.
(§4) Supplementary Figure 3. Binding analyses of ShHTLs and ShD14 with KAR1. The ITC
(§5) assays were performed by adding 3 mM KAR1 to 150 μM ShHTL1 (a), ShHTL4 (b), ShHTL7
(§6) (c), ShD14 (d) and AtHTL (e).
(§7) ShHTL1 and AtHTL were fitted using the MicroCal origin software with the “one binding site”
(§8) model. The ITC assays titrating KAR1 into ShHTL1 and AtHTL were repeated three times
(§9) independently (data not shown).

AtHTL–AtMAX2 interaction = AtHTL–AtMAX2 interaction (Arabidopsis thaliana, UniProt Q9SZU7); conditions: pull-down, 50 μM ligand, western blotting
Description: and AtHTL were detected using an anti-GST antibody, as indicated by the black arrows. (b)
1/10, 1/20, 1/50, 1/100, 1/1000) of transformed yeast cells was plated on control medium (SD/-
Leu/-Trp; -LT) and selective medium (SD/-Leu/-Trp/-His/-Ade; -LTHA) in the absence or
(1 picture or pasted object on this page, not shown here)

ShD14 = experiment: ITC binding to ShD14; design: species or system Striga hermonthica; conditions: 3 mM KAR1 into 150 μM protein
Description: as §3, §4, §5, §6, §7, §8, §9

ShHTL7 L124F/T190F/C194F = ShHTL7 L124F/T190F/C194F (Striga hermonthica, UniProt A0A0M3PNA2, C194F/L124F/T190F); experiment: ITC binding to ShHTL7 triple mutation; conditions: 3 mM KAR1 into 150 μM mutant
Description: as §1, §2

ShHTL4 = experiment: ITC binding to ShHTL4; design: species or system Striga hermonthica; conditions: 3 mM KAR1 into 150 μM protein
Description: as §3, §4, §5, §6, §7, §8, §9

ShHTL1 = ShHTL1 (Striga hermonthica, UniProt A0A0M4AV81); experiment: ITC binding to ShHTL1; conditions: 3 mM KAR1 into 150 μM protein, 20 °C, means ± SD, n = 3, read-out: dissociation constant (KD) of KAR1 to ShHTL1
Description: Binding analyses of ShHTLs and ShD14 with KAR1. The ITC assays were performed by adding 3 mM KAR1 to 150 μM ShHTL1 (a), ShHTL4 (b), ShHTL7
ShHTL1 and AtHTL were fitted using the MicroCal origin software with the “one binding site” model.

Striga = test system: Striga; design: method as in doi:10.1016/j.plantsci.2009.06.007, PMID 26228149; conditions: cited from earlier work
AtHTL = molecular target: T2, AtHTL (Arabidopsis thaliana, UniProt Q9SZU7); experiment: ITC binding to AtHTL; conditions: 3 mM KAR1 into 150 μM protein, 20 °C
T2 sequence (Q9SZU7 1-270): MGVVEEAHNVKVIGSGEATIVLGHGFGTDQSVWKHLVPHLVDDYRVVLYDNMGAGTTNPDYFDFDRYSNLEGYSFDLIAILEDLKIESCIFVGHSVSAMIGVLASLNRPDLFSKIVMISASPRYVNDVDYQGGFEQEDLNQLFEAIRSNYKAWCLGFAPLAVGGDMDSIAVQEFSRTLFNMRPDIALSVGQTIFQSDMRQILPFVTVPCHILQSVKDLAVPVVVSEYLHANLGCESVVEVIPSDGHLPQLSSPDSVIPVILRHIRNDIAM
Description: as §3, §4, §5, §6, §7, §8, §9

ShHTL3 and ShMAX2 = experiment: In vitro pull-down ShHTL3-ShMAX2; format: binding, Striga hermonthica; conditions: 50 μM ligand
Description: Ni-NTA pull-down assays were performed with purified ShMAX2 or AtMAX2 as the bait and […]14, or GST-AtD14 as the prey. The molecular weight of the HTL/D14 proteins is nearly the same as that of ASK1; therefore, the HTL/D14 proteins were fused to GST, increasing their molecular weight for detection on SDS-PAGE gels. […] The protein complexes were then eluted with 100 μL of elution buffer containing 50 mM Bis-Tris, pH 6.8, 500 mM NaCl, and 500 mM imidazole and subjected to SDS-PAGE analysis.

Sequence of ShHTL7 T190F/C194F (A0A0M3PNA2 whole entry T190F/C194F): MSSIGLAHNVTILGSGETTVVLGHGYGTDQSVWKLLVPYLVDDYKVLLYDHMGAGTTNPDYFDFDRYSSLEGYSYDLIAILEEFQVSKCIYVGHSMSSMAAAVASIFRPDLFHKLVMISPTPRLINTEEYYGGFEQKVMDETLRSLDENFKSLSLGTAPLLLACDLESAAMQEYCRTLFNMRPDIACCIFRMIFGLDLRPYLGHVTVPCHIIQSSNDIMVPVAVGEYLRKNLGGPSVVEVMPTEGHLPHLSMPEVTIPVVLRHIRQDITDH
Sequence of ShHTL1 (A0A0M4AV81 entry or part of it): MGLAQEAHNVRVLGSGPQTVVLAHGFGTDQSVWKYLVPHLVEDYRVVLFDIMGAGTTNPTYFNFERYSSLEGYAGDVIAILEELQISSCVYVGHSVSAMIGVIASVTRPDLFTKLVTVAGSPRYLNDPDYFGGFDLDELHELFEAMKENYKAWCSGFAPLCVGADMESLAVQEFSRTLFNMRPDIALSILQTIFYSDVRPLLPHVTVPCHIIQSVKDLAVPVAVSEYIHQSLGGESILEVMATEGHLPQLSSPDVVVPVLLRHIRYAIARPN
Sequence of ShHTL7 L124F/T190F/C194F (A0A0M3PNA2 whole entry L124F/T190F/C194F): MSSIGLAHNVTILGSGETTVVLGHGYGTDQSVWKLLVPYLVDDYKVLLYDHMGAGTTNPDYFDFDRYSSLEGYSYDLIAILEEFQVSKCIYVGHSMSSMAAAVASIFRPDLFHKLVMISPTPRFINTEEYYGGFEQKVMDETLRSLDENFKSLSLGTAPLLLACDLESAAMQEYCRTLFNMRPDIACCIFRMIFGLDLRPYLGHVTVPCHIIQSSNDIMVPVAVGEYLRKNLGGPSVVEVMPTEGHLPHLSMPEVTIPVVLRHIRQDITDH

In the case of Cc1c2ccocc-2oc1=O [KAR1, 3-methyl-2H-furo [2,3-c] pyran-2-one], the “KAR1 binding by ShHTL7 T190F/C194F” value (ShHTL7 T190F/C194F) is reported as “able to bind to KAR1 weakly”, the “KAR1 binding ability of ShHTL7” value (ShHTL7) is reported as “no significant KAR1 binding ability” and the “ligand effect on AtHTL-AtMAX2 interaction” value (AtHTL–AtMAX2 interaction) is reported as “did not interact with AtMAX2 in a KAR1-dependent manner”. The “KAR1 binding ability of ShD14” value (ShD14) was “no significant KAR1 binding ability”, the “KAR1 binding by ShHTL7 L124F/T190F/C194F” value (ShHTL7 L124F/T190F/C194F) was “able to bind to KAR1 weakly” and the “KAR1 binding ability of ShHTL4” value (ShHTL4) was “no significant KAR1 binding ability”. For the same compound, the Kd (ShHTL1) was 77 ± 12 µM, the “induction of germination of Striga” value (Striga) was “fails to induce germination of Striga” and the Kd (AtHTL) was 129 ± 17 µM. For the same compound, the “ShHTL3-ShMAX2 interaction in the presence of ligand” value (ShHTL3 and ShMAX2) was “no direct interaction with ShMAX2 in the presence of KAR1”.
